This is an account of results in ChEMBL document CHEMBL4706632, “Development of Potential Antitumor Agents from the Scaffolds of Plant-Derived Terpenoid Lactones” (J Med Chem, 2020).

The test system of one assay is MDA-MB-435. The assay is described as follows: Antiproliferative activity against human MDA-MB-435 cells incubated for 48 hrs by [3H]-thymidine incorporation assay. The format is functional, cell-based.
The subject of assay [1] is MCF7. The assay is described as follows: Antiproliferative activity against human MCF7 cells incubated for 48 hrs by [3H]-thymidine incorporation assay. It is filed as functional, cell-based.
Assay [2] in a line: Inhibition of PAFR in New Zealand rabbit platelets assessed as reduction in PAF-induced platelet aggregation measured within 5 mins by aggregometry analysis. It is filed as tissue-based. Conditions: Oryctolagus cuniculus.
A further assay has as its system HepG2. The assay is described as follows: Cytotoxicity against human HepG2 cells incubated for 48 hrs by MTT assay. It is filed as functional, cell-based. Conditions: HepG2, 48 h.
Another assay has as its system PANC-1. The experiment in a line: Cytotoxicity against human Panc-1 cells incubated for 48 hrs by MTT assay. The format is functional, cell-based. Conditions: PANC-1, 48 h.
Another assay concerns AGS. The experiment in a line: Cytotoxicity against human AGS cells incubated for 48 hrs by MTT assay. It is filed as functional, cell-based.
Assay [3] relates to MDA-MB-231. The experiment in a line: Cytotoxicity against human MDA-MB-231 cells incubated for 48 hrs by MTT assay. The format is functional, cell-based. Conditions: MDA-MB-231, 48 h.
The test system of the next assay is HeLa. The assay is described as follows: Cytotoxicity against human HeLa cells incubated for 48 hrs by MTT assay. It is filed as functional, cell-based.
A further assay deals with P388. The experiment in a line: Antiproliferative activity against mouse P388 cells. The format is functional, cell-based.
The next assay concerns WM 266-4. The assay is described as follows: Cytotoxicity against human WM 266-4 cells incubated for 72 hrs by ATPlite assay. Conditions: WM 266-4, 72 h. It is filed as functional, cell-based.
For assay [4], the system named is HCT-116. The assay is described as follows: Cytotoxicity against human HCT116 cells incubated for 72 hrs by ATPlite assay. The format is functional, cell-based. Conditions: HCT-116, 72 h.
In assay [5] the test system is MDA-MB-231. The assay is described as follows: Cytotoxicity against human MDA-MB-231 cells incubated for 72 hrs by MTT assay. As to conditions: MDA-MB-231, 72 h. The format is functional, cell-based.
The subject of assay [6] is MCF7. The experiment in a line: Cytotoxicity against human MCF-7 cells incubated for 72 hrs by MTT assay. The format is functional, cell-based. As to conditions: MCF7, 72 h.
The subject of assay [7] is HCT-116. The assay is described as follows: Antiproliferative activity against human HCT-116 cells incubated for 72 hrs by WST-1 assay. As to conditions: HCT-116, 72 h. The format is functional, cell-based.

On to `CC(=O)O[C@H]1CC(=O)OC(C)(C)[C@@H]2CC(=O)[C@]3(C)[C@H](CC[C@@]4(C)[C@H](c5ccoc5)OC(=O)[C@H]5O[C@]543)[C@@]12C`, for which the IC50 in the assay with MDA-MB-435 was determined as 0.78 µM; in the assay with MCF7 [1], 0.097 µM.
With `Cc1ccccc1Cn1cc(CO[C@H]2C(=O)O[C@H]3O[C@]45C(=O)O[C@@H]6[C@H](O)[C@@H](C(C)(C)C)[C@@]32[C@@]64[C@@H](O)[C@@H]2OC(=O)[C@@H](C)[C@@]25O)nn1`, the concentration for half-maximal inhibition (IC50) in [2] stood at 0.038 µM.
Regarding `C[C@@]12C3=CC(=O)O[C@H]([C@H](O)CO)[C@]34O[C@@H]4[C@H]3OC(=O)[C@](C)([C@H]31)[C@@H](O)[C@H]1O[C@H]12`, the half-maximal inhibitory concentration (IC50) in the assay with HepG2, with PANC-1, in the assay on AGS, with MDA-MB-231 [3] and with HeLa was more than 40 µM each time.
As for `CC(=O)O[C@@H]1C[C@H](O)[C@@]23COC(O)[C@]1(C)[C@@H]2C[C@@H](O)[C@]1(C)[C@@H]3C(=O)C[C@@]2(C)[C@H](c3ccoc3)C[C@H]3O[C@@]312` (stereo partly specified), the IC50 with P388 was less than 0.0019 µM.
Regarding `CC1(C)OC(=O)C[C@H](O)[C@]2(C)[C@H]3CC[C@@]4(C)[C@H](c5ccoc5)OC(=O)[C@H]5O[C@]54[C@]3(C)C(=O)C[C@@H]12`, the IC50 in the assay with MDA-MB-435 came out at 0.15 µM; in the assay with MCF7 [1], 0.01 µM.
Turning to `CC1(C)O[C@H]2CC(=O)OC[C@@]23[C@H]1CC(=O)[C@@]1(C)C2=CC(=O)O[C@@H](c4ccoc4)[C@]2(C)CC[C@@H]13`, the IC50 in the assay with MDA-MB-435 worked out at 1.7 µM; with MCF7 [1], 5.5 µM.
As for `C/C(C=O)=C\[C@H]1C[C@@H]([C@@H]2CC[C@]34C[C@]23C=C[C@@H]2[C@@]3(C)CC=C5C[C@@H](c6ccccc6)OC[C@]5(C)[C@@H]3C[C@@H](O)[C@]24C)C(=O)O1`, the half-inhibitory concentration (IC50) in the assay with WM 266-4 worked out at 1.5 µM; with HCT-116 [4], 0.092 µM.
In the same order, the values of `C/C(=C\[C@@H]1OC(=O)[C@H]([C@@H]2CC[C@]34C[C@]23C=C[C@@H]2[C@@]3(C)CC=C5C[C@@H](c6ccccc6)OC[C@]5(C)[C@@H]3C[C@@H](O)[C@]24C)[C@H]1O)CO` are 0.34 µM and 0.081 µM.
With `C=C[C@H]1OC(=O)C=C2[C@]3(C)[C@H]4[C@H](OC(=O)[C@@]4(C)[C@@H](O)[C@H]4O[C@H]43)[C@H]3O[C@@]231`, the half-inhibitory concentration (IC50) is 3.5 µM in the assay on HepG2; 8.5 µM in the assay on PANC-1; 0.55 µM in the assay on AGS; 0.66 µM in the assay on MDA-MB-231 [3]; 0.62 µM in the assay with HeLa.
With `COC(=O)[C@@]12OC[C@]34[C@H]([C@@H](O)[C@@H]1O)[C@@]1(C)C=C(O[C@@H]5O[C@H](CO)[C@@H](O)[C@H](O)[C@H]5O)C(=O)[C@@H](C)[C@@H]1C[C@H]3OC(=O)[C@H](OC(=O)C=C(C)C)[C@@H]24` [BRUCEOSIDE A], the IC50 in the assay with MDA-MB-231 [5] and in the assay with MCF7 [6] was more than 50 µM throughout.
Turning to `CC(O)(CO)[C@H]1C[C@H](O)[C@@H]([C@@H]2CC=C3[C@]4(C)[C@H](O)C[C@@H]5[C@](C)(CC=C6C[C@@H](Cc7ccccc7)OC[C@@]65C)[C@H]4CC[C@]32C)[C@@H](O)O1` (stereo partly specified), the half-inhibitory concentration (IC50) in the assay with WM 266-4 is 31 µM; in the assay with HCT-116 [4], 4.2 µM.
`C=C[C@H]1OC(=O)C=C2C1=C[C@H]1OC(=O)[C@@]3(C)CCC[C@@]2(C)[C@@H]13`: 0.16 µM corresponded to half-maximal inhibition with P388 (IC50).
Consider `CC(C)c1oc(=O)cc2c1[C@@H](O)[C@H]1OC(=O)[C@@]3(C)[C@@H](O)[C@H]4O[C@H]4[C@@]2(C)[C@@H]13` [NAGILACTONE C], for which the half-maximal inhibitory concentration (IC50) in the assay on HepG2 was 14 µM; with PANC-1, more than 40 µM; in the assay on AGS it was 2.3 µM; in the assay with MDA-MB-231 [3], 5 µM; with HeLa, 3.3 µM.
In the case of `CC(C)[C@H]1OC(=O)C=C2C1=C[C@H]1OC(=O)[C@@]3(C)CCC[C@@]2(C)[C@@H]13` [NAGILACTONE F], the half-inhibitory concentration (IC50) was found to be 1.3 µM in the assay with HepG2; 19 µM in the assay with PANC-1; 0.5 µM in the assay with AGS; 1 µM in the assay with MDA-MB-231 [3]; 0.28 µM in the assay on P388; 0.72 µM with HeLa.
As for `Cc1ccccc1Cn1cc(CO[C@H]2C(=O)O[C@H]3O[C@]45C(=O)O[C@@H]6C[C@@H](C(C)(C)C)[C@@]32[C@@]64[C@@H](O)[C@@H]2OC(=O)[C@@H](C)[C@@]25O)nn1`, the IC50 in [2] amounted to 0.0057 µM.
As for `CC(=O)O[C@@]1(C)COC2(C1)OC(=O)[C@H]([C@@H]1CC[C@]34C[C@]13C=C[C@@H]1[C@@]3(C)CC=C5C[C@@H](Cc6ccccc6)OC[C@]5(C)[C@@H]3[C@@H](O)C(=O)[C@]14C)[C@H]2O` (stereo partly specified), the IC50 in the assay on WM 266-4 came to 0.078 µM; in the assay with HCT-116 [4] it was 0.0099 µM.
Consider `CC(=O)OC1OC[C@@]23[C@H]4C(=O)C(OC(C)=O)[C@@]5(C)[C@H](c6ccoc6)C[C@H]6O[C@]65[C@]4(C)[C@H](O)C[C@H]2[C@]1(C)[C@H](OC(C)=O)C[C@@H]3O` (stereo partly specified), for which the concentration for half-maximal inhibition (IC50) with P388 is 0.016 µM.
For `CC(=O)O[C@@]1(C)COC2(C1)OC(=O)[C@H]([C@@H]1CC[C@]34C[C@]13C=C[C@@H]1[C@@]3(C)CC=C5C[C@@H](Cc6ccccc6)OC[C@]5(C)[C@@H]3CC(=O)[C@]14C)[C@H]2O` (stereo partly specified), the 50% inhibitory concentration (IC50) with WM 266-4 is 0.23 µM; in the assay with HCT-116 [4], 0.058 µM.
In the assay with HCT-116 [7], `COC(=O)[C@@]12OC[C@]34[C@H]([C@@H](O)[C@@H]1O)[C@@]1(C)CC(=O)C(O)=C(C)[C@@H]1C[C@H]3OC(=O)[C@H](OC(=O)/C=C(\C)C(C)(C)O)[C@@H]24` returned a concentration for half-maximal inhibition (IC50) of 0.25 µM.
In turn, `C=C1[C@@H](O)C[C@H]2C(C)(C)C[C@H](Cl)C[C@]2(C)[C@H]1C[C@H](O)[C@H]1CC(=O)NC1=O` [CHLOROLISSOCLIMIDE] had a concentration for half-maximal inhibition (IC50) with P388 of 0.004 µM.
As to `CC(C)[C@H]1OC(=O)C=C2C1=C[C@H]1OC(=O)[C@@]3(C)C[C@@H](O)C[C@@]2(C)[C@@H]13`, the IC50 in the assay on HepG2 was determined as 3.7 µM; in the assay on PANC-1 it was 3.1 µM; with AGS, 0.37 µM; in the assay with MDA-MB-231 [3], 1.1 µM; in the assay on HeLa, 0.9 µM.
Regarding `C=C1[C@@H](O)C[C@H]2C(C)(C)[C@@H](Cl)[C@H](Cl)C[C@]2(C)[C@H]1C[C@H](O)[C@H]1CC(=O)NC1=O` [DICHLOROLISSOCLIMIDE], in the assay with P388, inhibition was half-maximal at 0.002 µM (IC50).
`C[C@]1(O)COC2(C[C@@H]([C@@H]3CC[C@]45C[C@]34C=C[C@@H]3[C@@]4(C)CC=C6C[C@@H](Cc7ccccc7)OC[C@]6(C)[C@@H]4C[C@@H](O)[C@]35C)C(=O)O2)C1` (stereo partly specified): the results for the half-inhibitory concentration (IC50) in the assay with WM 266-4 and in the assay with HCT-116 [4] were 1.3 µM and 0.45 µM, respectively.
`CC(=O)O[C@@H]1C[C@H](O)[C@@]23COC(O)[C@]1(C)[C@@H]2C[C@@H](O)[C@@]1(C)[C@@H]2C(=O)C[C@@H](c4ccoc4)[C@]2(C)CC(=O)[C@@H]13` (stereo partly specified) showed an IC50 in the assay on P388 of 58 µM.
Consider `Cc1ccccc1Cn1cc(CO[C@H]2C(=O)O[C@H]3O[C@]45C(=O)O[C@@H]6C[C@@H](C(C)(C)C)[C@@]32[C@@]64C[C@@H]2OC(=O)[C@@H](C)[C@@]25O)nn1`, for which, in assay [2], the IC50 stood at 0.071 µM.
As to `C[C@@H](O)[C@H]1OC(=O)C=C2[C@]3(C)[C@H]4[C@H](OC(=O)[C@@]4(C)[C@@H](O)[C@H]4O[C@H]43)[C@H]3O[C@@]231`, the IC50 with HepG2 was 11 µM; with PANC-1 it was 16 µM; with AGS, 1.3 µM; with MDA-MB-231 [3], 3 µM; in the assay with HeLa it was 1.8 µM.
